Read-outs that look alike come from different tables or passages of the source.
Assays:
human washed platelets [1] = assay: Platelet aggregation induced by collagen; type: cell-based; conditions: 0.5 μg/ml collagen
Method: Figure 6 Effect of inhibitory compounds on platelet aggregation and TXB2 level formation in response to collagen. […] TXB2 levels were measured in the supernatant of platelets (C). Results represent 3 experiments.
(§1) Venous blood was obtained from healthy volunteers who had not ingested any drugs for the last 14 days and after informed consent in accordance with the Institutional Review Board (IRB) of the American University of Beirut (Approval # BioCh.AH.03). Washed platelets were prepared as described previously. Briefly, 20 ml of peripheral blood was withdrawn on ACD-C (1 volume for 9 volumes of blood) and centrifuged at 120 g for 15 min at room temperature (RT) to obtain platelet-rich plasma. Platelet-rich plasma was further centrifuged at 1,200 g for 15 min at RT, and the platelet pellet obtained was washed by Tyrode buffer solution containing 0.1 μM of PGE1 and further centrifuged at 1,200 g for 15 min at RT. […] Aggregation of washed-platelets was determined using light transmittance aggregometry (Chrono-Log Corp., Havertown, PA). 400 μl of platelets (0.4 x 10^9plt/ml) were preincubated for 1 min at 37 °C in the absence or presence of inhibitors prior to the addition of 25 μM of arachidonic acid, which was controlled as optimal in our conditions. In some experiments, platelets were triggered with 1 μM U46619, a TX receptor agonist, or 0.5 μg/ml collagen, a concentration we checked in our conditions to induce COX-dependent platelet aggregation. TXB2 was measured in the supernatant by enzyme immunoassay.

human washed platelets [2] = assay: Platelet aggregation triggered by arachidonic acid (light transmittance aggregometry); type: cell-based; conditions: for IC50 / Plt aggregation IC50 ± S.E.M: human washed platelets 0.4 x 10^9 plt/ml, inhibitor 1 min before 25 μM arachidonic acid, n = 3–4; for IC50: read-out: Plt aggregation IC50 ± S.E.M; for Effect on arachidonic acid-dependent platelet aggregation: 25 μM arachidonic acid, human washed platelets
Method: Figure 2 Aggregation curves of inhibitory compounds. Platelet aggregation was performed on human washed platelets. Platelets (0.4 × 10^9 plt/ml) were treated with increasing concentrations of each inhibitor for 1 min prior to the addition of 25 μM of arachidonic acid for 2 min. Results represent aggregation curves of compound 3 (A), compound 4 (B), compound 7 (C), compound 8 (D), and compound 9 (E). Aggregation curves are representative of at least 4 experiments with similar results.
Slopes of aggregation curves were analyzed by Grafit 7 software and inhibition curves were obtained. (A) represents compounds of type I and (B) compounds of type II. […] Results correspond to mean ± S.E.M. for 3–5 experiments.
as §1
(§2) Aggregation data were expressed after defining the slope for each aggregation curve, which better reflects the rate of the platelet reaction, using the Born’s method. Curve fitting and calculation of the IC50 values were done using Grafit 7 software (Erithacus software, Staines, UK). Results of TXB2 and PGE2 measurement were expressed as the mean ± S.E.M. for at least 3 different experiments and statistical analysis was performed using Sigma Plot (Systat Software Inc., San Jose, CA). Autoradiograms obtained from western blot analyses were scanned using Epson 1680 pro scanner and densitometric analysis was performed using Scion Image (Scion Corporation, MD).

human COX-1 = molecular target: T1, human COX-1 (Homo sapiens, UniProt P23219); assay: COX-1 activity (PGE2 by enzyme immunoassay) in COS-7 cells overexpressing human COX-1; type: cell-based; conditions: COS-7 cells overexpressing human COX-1, 30 min compound then 25 μM arachidonic acid 30 min, n = 3-4, read-out: COX-1 activity IC50 ± S.E.M
T1 construct: expressed in transfected cells; host or cells: COS-7
T1 sequence (P23219 24-599): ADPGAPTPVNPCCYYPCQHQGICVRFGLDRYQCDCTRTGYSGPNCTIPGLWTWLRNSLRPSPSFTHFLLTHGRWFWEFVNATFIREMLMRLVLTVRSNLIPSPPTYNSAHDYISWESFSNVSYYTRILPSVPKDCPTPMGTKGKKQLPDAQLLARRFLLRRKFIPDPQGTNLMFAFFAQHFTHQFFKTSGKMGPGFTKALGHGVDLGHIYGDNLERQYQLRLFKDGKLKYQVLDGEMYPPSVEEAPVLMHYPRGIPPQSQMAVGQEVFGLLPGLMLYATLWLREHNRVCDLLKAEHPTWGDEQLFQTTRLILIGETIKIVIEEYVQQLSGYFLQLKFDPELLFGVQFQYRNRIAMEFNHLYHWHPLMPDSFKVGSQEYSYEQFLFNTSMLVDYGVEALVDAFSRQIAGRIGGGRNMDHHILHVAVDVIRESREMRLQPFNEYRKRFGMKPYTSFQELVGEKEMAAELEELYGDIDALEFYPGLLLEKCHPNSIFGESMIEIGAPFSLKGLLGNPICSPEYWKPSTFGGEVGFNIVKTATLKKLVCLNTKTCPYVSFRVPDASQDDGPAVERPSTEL
Method: Figure 4 Inhibition of COX-1 activity. Human COX-1 was overexpressed in COS-7 cells. […] PGE2 was measured in the supernatant by enzyme immunoassay. Results were expressed as percentage of PGE2 in arachidonic acid treated samples which was attributed a value of 100. Fitting of curves was done using Grafit software. Results correspond to mean ± S.E.M. for 3 experiments. […] Insert represents Western blot analysis of COX-1 using selective monoclonal COX-1 in untransfected and pcDNA3-COX-1transfected cells.
as §2

thromboxane receptor = molecular target: T2, thromboxane receptor (Homo sapiens, UniProt P21731); assay: Platelet aggregation in response to TX receptor agonist U46619; type: cell-based; conditions: 50 μM compound, 1 μM U46619
T2 construct: Venous blood was obtained from healthy volunteers; endogenous in cells; host or cells: washed human blood platelets
T2 sequence (P21731 1-343): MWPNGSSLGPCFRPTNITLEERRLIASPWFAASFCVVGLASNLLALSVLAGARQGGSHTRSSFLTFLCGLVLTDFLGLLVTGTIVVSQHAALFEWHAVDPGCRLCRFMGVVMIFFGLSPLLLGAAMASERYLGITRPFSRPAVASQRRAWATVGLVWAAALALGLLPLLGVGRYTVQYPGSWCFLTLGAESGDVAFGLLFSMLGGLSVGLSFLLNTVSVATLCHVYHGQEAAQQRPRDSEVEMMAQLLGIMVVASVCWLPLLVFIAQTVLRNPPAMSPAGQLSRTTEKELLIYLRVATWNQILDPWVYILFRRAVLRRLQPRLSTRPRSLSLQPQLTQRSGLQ
Method: Figure 7 Effect of inhibitory compounds on platelet aggregation in response to TX receptor agonist, U46619. Platelets (0.4x 10^9 plt/ml) were pretreated with 50 μM of inhibitory compounds 3, 4, 7, 8 and 9 then triggered with 1 μM U46619, a thromboxane receptor agonist. Aggregation curves of compounds of type I (A) and type II (B) are representative of 2 experiments with similar results.
as §1

[3] = tested on: COS-7 cells overexpressing COX-1; assay: WST-1 viability assay; conditions: 25 and 50 μM
Method: We used COS-7 cells overexpressing human COX-1. […] In these cells which express only COX-1, arachidonic acid is metabolized into prostaglandin (PG) H2 which will consequently breakdown into PGE2. Measurement of PGE2 under these conditions will reflect COX-1 activity [18, 19].
COS-7 cells were grown using DMEM-medium containing 10% fetal bovine serum (FBS). Cells were transfected in suspension with pcDNA3-COX-1 plasmid using FuGENE® 6 transfection reagent at a ratio of 3:1 (FuGENE: DNA, v/w) and then cultured in DMEM media + 10% FBS in 12-well plates. […] PGE2 was measured in the supernatants by enzyme immunoassay [23]. Cells were washed twice with PBS and lysed in lysis buffer. […] Briefly, SDS polyacrylamide electrophoresis was performed using 8% gels followed by protein transfer using a semi-dry transfer machine.

Row | IC50 (human washed platelets [2]; Platelet) [µM] | Plt aggregation IC50 ± S.E.M (human washed platelets [2]) | IC50 (human COX-1) [µM] | IC50 (human washed platelets [2]) [µM] | Structure (SMILES) | Platelet aggregation induced by collagen (human washed platelets [1]; 25 μM ibuprofen) | Effect on arachidonic acid-dependent platelet aggregation (human washed platelets [2]) | Platelet aggregation induced by collagen (human washed platelets [1]; 50 μM compound) | Thromboxane receptor-dependent platelet aggregation (thromboxane receptor) | Toxicity in WST-1 viability assay [3]
1 | 0.5 ± 0.11 |  |  |  | CC(C)Cc1ccc(C(C)C(=O)O)cc1 (stereo not drawn) [Ibuprofen, reference compound] | strongly inhibited |  |  |  | 
2 |  | No inhibition |  |  | CCCCCC(O)c1cccc(C=NO)c1 (stereo not drawn) [Compound 1] |  | no inhibitory effect |  |  | 
3 |  |  | 1.3 ± 0.5 | 8.5 ± 1.2 | COc1cc(C(O)c2ccccc2)ccc1O (stereo not drawn) [Compound 7] |  | significant inhibitory activities | blocked platelet aggregation induced by collagen | None of the compounds 3, 4, 7, 8 and 9 were able to act | absence of toxicity
4 |  |  | 8.1 ± 1.7 | 11.3 ± 4.8 | COc1cc(C(C)(O)c2ccccc2)ccc1O (stereo not drawn) [Compound 9] |  |  | blocked platelet aggregation induced by collagen | None of the compounds 3, 4, 7, 8 and 9 were able to act | absence of toxicity
5 |  |  | 12.1 ± 2.3 | 14.2 ± 5.7 | CCCCC(O)c1ccc(O)c(OC)c1 (stereo not drawn) [Compound 4] |  |  | blocked platelet aggregation induced by collagen | None of the compounds 3, 4, 7, 8 and 9 were able to act | absence of toxicity
6 |  |  | 6.5 ± 0.2 | 13.4 ± 0.5 | COc1cc(C(O)c2ccc(F)cc2)ccc1O (stereo not drawn) [Compound 8] |  | significant inhibitory activities | blocked platelet aggregation induced by collagen | None of the compounds 3, 4, 7, 8 and 9 were able to act | absence of toxicity
7 |  |  |  | 41.2 ± 0.7 | COc1cc(C(O)C2CCCC2)ccc1O (stereo not drawn) [Compound 6] |  | loss of the inhibitory activity |  |  | 
8 |  | No inhibition |  |  | COc1ccc(C(O)c2ccccc2)cc1OC (stereo not drawn) [Compound 10] |  | completely abolished the inhibitory activity |  |  | 
9 |  |  |  | 97.6 ± 83.5 | CCCCCCCCCC(O)c1ccc(O)c(OC)c1 (stereo not drawn) [Compound 5] |  | loss of the inhibitory activity |  |  | 

Row | Structure (SMILES) | IC50 (human washed platelets [2]; Platelet) [µM] | Plt aggregation IC50 ± S.E.M (human washed platelets [2]) | IC50 (human COX-1) [µM] | IC50 (human washed platelets [2]) [µM] | Platelet aggregation induced by collagen (human washed platelets [1]; 25 μM ibuprofen) | Effect on arachidonic acid-dependent platelet aggregation (human washed platelets [2]) | Platelet aggregation induced by collagen (human washed platelets [1]; 50 μM compound) | Thromboxane receptor-dependent platelet aggregation (thromboxane receptor) | Toxicity in WST-1 viability assay [3]
10 | CCCCCC(O)c1ccc(O)c(OC)c1 (stereo not drawn) [Compound 3] |  |  | 2.2 ± 0.7 | 7.5 ± 0.8 |  |  | blocked platelet aggregation induced by collagen | None of the compounds 3, 4, 7, 8 and 9 were able to act | absence of toxicity
11 | CCCCCC(O)c1cccc(C(=O)O)c1 (stereo not drawn) [Compound 2] |  | No inhibition |  |  |  | no inhibitory effect |  |  | 

— paper PMC3582601, “New analogues of 13-hydroxyocatdecadienoic acid and 12-hydroxyeicosatetraenoic acid block human blood platelet aggregation and cyclooxygenase-1 activity” (Chemistry Central Journal, 2012)
